Laboratory results as given in patent US20190083420A1, “METHODS OF USING (2R, 6R)-HYDROXYN[…] (2S, 6S)-HYDROXYN[…] THE TREATMENT OF DEPRESSION, ANXIETY, ANHEDONIA, FATIGUE, SUICIDAL IDEATION, AND POST TRAUMATIC STRESS DISORDERS” (The Uinited States of America, as represented by the …, priority 2016, published 2019).
“Also recorded” adds a separate entry of the source.

What was measured:
[1] = Tissue distribution of ketamine and metabolites (plasma and brain levels); settings: brain
Method: Mice were euthanized by a 30-sec exposure to 3% isoflurane and decapitated at 10, 30, 60, 240 or 480 minutes following drug administration. Trunk blood was collected in EDTA-containing tubes and centrifuged at 8000 rpm for 6 min (4° C.). Plasma was collected and stored at −80° C. until analysis. Whole brains were simultaneously collected, rinsed with phosphate-buffered saline, immediately frozen in dry ice and stored at −80° C. until analysis.
The concentrations of ketamine and its metabolites in plasma and brain tissue were determined by achiral liquid chromatography-tandem mass spectrometry. For plasma samples, the calibration standards for (R,S)-ketamine, (R,S)-norketamine, (2R,6R;2S,6S)-HNK and (R,S)-DHNK ranged from 10,000 ng/ml to 19 ng/ml. The quantification of (R,S)-ketamine, (R,S)-norketamine, (R,S)-DHNK, and the HNK stereoisomers was accomplished by calculating area ratios using D4-ketamine (10 μl of 10 μg/ml solution) as the internal standard. Whole brains were suspended in 990 μl of water:methanol (3:2, v/v), D4-ketamine (10 μl of 10 μg/ml) added and the resulting mixture homogenized on ice with a polytron homogenizer and centrifuged at 21,000×g for 30 min. The supernatant was collected and processed using 1 ml Oasis HLB solid phase extraction cartridges (Waters Corp., Waltham, Mass.). The cartridges were preconditioned with 1 ml of methanol, followed by 1 ml of water and then 1 ml ammonium acetate [10 mM, pH 9.5]. The supernatants were added to the cartridges, followed by 1 ml of water and the compounds were eluted with 1 ml of methanol. The eluent was transferred to an autosampler vial for analysis. QC standards for the analysis of (R,S)-ketamine, (R,S)-norketamine, (R,S)-DHNK and (2R,6R;2S,6S)-HNK ranged from 10,000 ng/ml to 19 ng/ml, and quantification was accomplished using D4-(R,S)-ketamine as the internal standard. QC standards were prepared daily by adding 10 μl of the appropriate standard solution and 10 μl of internal standard solution (100 ng/ml) to methanol.

[2] = test system: mice; experiment: Drug discrimination in ketamine-trained mice; assay type: in vivo; settings: for response rate of overall lever pressing per sec: drug discrimination paradigm
Method: Mice were food restricted until they reached 85% of their initial body weight and were maintained at 85% throughout the duration of the experiment Animals were trained to lever press for food (20 mg sucrose pellets; TestDiet, St. Luis, Mo., USA) in standard two lever-operant conditioning chambers (Coulbourn Instruments, Whitehall, Pa., USA), under a fixed-ratio 5 of reinforcement (FR5) in daily 30-min sessions. When stable responding was succeeded over 3 consecutive sessions (average of 40 training sessions), mice were trained to discriminate ketamine (10 mg/kg) from saline (7.5 ml/kg) under a double alternation schedule (e.g., ketamine, ketamine, saline, saline). The subjects received either ketamine (10 mg/kg; i.p.) or saline (7.5 ml/kg) 15 minutes prior to the start of the 30-minute session. […] Drug discrimination test sessions were conducted when mice reached the following criteria: (1) first FR5 completed on the correct lever, and (2)≥85% correct lever responding over the entire session. During the test sessions mice were administered with saline (7.5 ml/kg), ketamine (10 mg/kg), phencyclidine (PCP; 3 mg/kg) or (2R,6R)-HNK (10 and 50 mg/kg). […] Recording of responses and pellet delivery were controlled and calculated by an automated computer system (Graphic State v3.1; Coulbourn Instruments, Whitehall, Pa., USA).

[3] = test system: mTOR; experiment: Western blot of synaptoneurosomes, mTOR and phosphorylated mTOR; assay type: in vivo, mice
Method: To purify synaptoneurosomes, mouse prefrontal cortex or hippocampus were dissected and homogenized in Syn-PER Reagent (ThermoFisher Scientific, Waltham, Mass., USA; Cat #87793) with 1× protease and phosphatase inhibitor cocktail (ThermoFisher Scientific, Waltham, Mass., USA; Cat #78440). The homogenate was centrifuged for 10 min at 1,200×g at 4° C. The supernatant was centrifuged at 15,000×g for 20 min. After centrifugation, the supernatant the pellet (synaptosomal fraction) was re-suspended and sonicated in N-PER Neuronal Protein Extraction Reagent (ThermoFisher Scientific, Waltham, Mass., USA; Cat #87792). For total homogenous tissue lysates, mouse prefrontal cortex or hippocampus were homogenized and sonicated in N-PER Neuronal Protein Extraction Reagent with 1× protease & phosphatase inhibitor cocktail) Protein concentration was determined via the BCA protein assay kit (ThermoFisher Scientific, Waltham, Mass., USA; Cat #23227).
For western blotting, equal amount of proteins (10-40 μg as optimal for each antibody) for each sample were loaded into NuPage 4-12% Bis-Tris gel for electrophoresis. Nitrocellulose membranes with transferred proteins were blocked with 5% milk in TBST (TBS+0.1% Tween-20) for 1 hour and kept with primary antibodies overnight at 4° C. The following primary antibodies were used: phospho-eEF2 (Cell Signaling Technology, Danvers, Mass., USA; Cat #2331), total eEF2 (Cell Signaling Technology, Danvers, Mass., USA; Cat #2332), phospho-mTOR (Cell Signaling Technology, Danvers, Mass., USA; Cat #2971), total mTOR (Cell Signaling Technology, Danvers, Mass., USA; Cat #2983), GluR1 (Cell Signaling Technology, Danvers, Mass., USA; […]), GluR2 (Cell Signaling Technology, Danvers, Mass., USA; Cat #13607), BDNF (Santa Cruz Biotechnology, Dallas, Tex., USA; Cat # sc-546), and GAPDH (Abcam, Cambridge, Mass., USA; Cat # ab8245). The next day, blots were washed three times in PBST and incubated with horseradish peroxidase conjugated anti-mouse or anti-rabbit secondary antibody (1:5000 to 1:10000) for 1 hour. After final three washes with TBST, bands were detected using enhanced chemiluminescence (ECL) with the Syngene Imaging System (G:Box ChemiXX9). After imaging, the blots then were incubated in the stripping buffer (ThermoFisher Scientific, Waltham, Mass., USA; Cat #46430) for 10-15 min at room temperature followed by three time washes with TBST. The stripped blots were washed in blocking solution for 1 hour and incubated with the primary antibody directed against total levels of the respective protein or GAPDH for loading control. Densitometric analysis of phospho- and total immunoreactive bands for each protein was conducted using Syngene's GenTools software Immunoreactivity was normalized to the saline treated control group for each protein.

[4] = test system: mice; experiment: Open field test (locomotor activity); assay type: in vivo; settings: 1 hour after i.p. drug
Method: Mice were placed into individual open-field arenas (50 cm length×50 cm width×38 cm height; San Diego Instruments, San Diego, Calif., USA) for a 60-min habituation period. Mice were then injected with the respective drug and assessed for locomotor activity for another 60 min. Distance travelled was analyzed using TopScan v2.0 (CleverSys, Inc, Reston, Va., USA).

[5] = hippocampus, 1- or 24-hours post-injection, 10 mg/kg

Compound	brain levels following ketamine administration, female mice compared to males [1]	response rate of overall lever pressing per sec [2]	mTOR / phosphorylated mTOR synaptoneurosome levels [3, 5]	mTOR / phosphorylated mTOR synaptoneurosome levels ([3]; hippocampus, 1- or 24-hours post-injection, 10 mg/kg, listed as (R,S)-ketamine)	mTOR / phosphorylated mTOR synaptoneurosome levels ([3]; prefrontal cortex)	mTOR / phosphorylated mTOR synaptoneurosome levels ([3]; prefrontal cortex, listed as (R,S)-KET)	locomotor activity in the open-field test [4]	locomotor activity in the open-field test ([4]; listed as (R,S)-KET)	locomotor activity in the open-field test ([4]; listed as (R,S)-ketamine)	brain hydroxynorketamine levels after administration of (2S,6S)-HNK versus (2R,6R)-HNK [1]	ketamine-associated discriminative stimulus ([2]; mice trained to discriminate ketamine (10 mg/kg) from saline)	mTOR / phosphorylated mTOR synaptoneurosome levels ([3]; hippocampus, 1- or 24-hours post-injection, 10 mg/kg, listed as (2R,6R)-hydroxynorketamine)
CNC1(c2ccccc2Cl)CCCCC1=O (racemic) [ketamine, (R,S)-ketamine, reference compound]	equivalent levels	not changed	not observed	did not alter synaptoneurosome levels of mTOR or phosphorylated mTOR	not observed	did not alter	not associated with sex differences in ketamine-induced hyperlocomotion	induced hyper-locomotor responses equally in both male and female mice	equally potent in inducing a hyper-locomotor response	–	–	–
N[C@@]1(c2ccccc2Cl)CCC[C@@H](O)C1=O [(2R,6R)-HNK, (2R,6R)-2-amino-2-(2-chlorophenyl)-6-hydroxycyclohexanone]	–	not changed	not observed	–	not observed; also recorded: did not alter	–	did not induce any significant change in locomotion; also recorded: did not induce any stimulant-like hyperlocomotion	–	–	do not result from higher brain levels	did not induce; also recorded: did not produce ketamine-related discrimination responses; also recorded: did not produce discriminative stimulus behaviors	did not alter synaptoneurosome levels of mTOR or phosphorylated mTOR
